Results reported in patent US20240270821A1, “GIP/GLP1/GCG TRI-RECEPTOR AGONISTS AND USES THEREOF” (priority 2023, published 2024).
Positions count from the first letter of the chain named. Where two headings read alike, the source gives them in different places. Marks after values point to notes of the source that are not given here. Starred links: 1 amine or outer side, 2 acyl side, 3 side chain; linkers in the order of their positions; H or OH if unused. Non-standard residues stand in square brackets, D forms with d. Groups on a side chain read outwards from the residue. No end group written: not given here. *: point of attachment. C20 diacid = O=C(O)CCCCCCCCCCCCCCCCCCC(=O)*; C18 diacid = O=C(O)CCCCCCCCCCCCCCCCC(=O)*; γGlu = O=C(O)[C@H](CCC(=O)[*:2])N[*:1]; αMe4Pal = C[C@](N)(Cc1ccncc1)C(=O)O; αMeL = CC(C)C[C@](C)(N)C(=O)O; AEEA = NCCOCCOCC(=O)O; Aib = CC(C)(N)C(=O)O

Tests used:
human GLP1-R = human GLP1-R (Homo sapiens, UniProt P43220); assay: GLP1-R internalization assay in HEK293 cells; format: cell-based; details: for Internalization % TOP: normalized to maximum concentration of GLP-1 (100%)
human GLP1-R, sequence (P43220 24-463): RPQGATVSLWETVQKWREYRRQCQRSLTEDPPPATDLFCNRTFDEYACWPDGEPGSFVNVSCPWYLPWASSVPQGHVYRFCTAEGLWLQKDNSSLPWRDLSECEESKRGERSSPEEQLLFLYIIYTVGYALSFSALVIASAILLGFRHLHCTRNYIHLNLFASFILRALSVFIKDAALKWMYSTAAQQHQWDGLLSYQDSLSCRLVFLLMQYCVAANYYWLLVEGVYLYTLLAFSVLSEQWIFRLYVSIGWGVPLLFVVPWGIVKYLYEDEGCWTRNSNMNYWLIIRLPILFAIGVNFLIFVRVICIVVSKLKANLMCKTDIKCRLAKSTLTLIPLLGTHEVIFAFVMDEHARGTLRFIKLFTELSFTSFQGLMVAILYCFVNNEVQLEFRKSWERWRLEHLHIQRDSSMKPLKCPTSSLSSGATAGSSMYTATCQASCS

hGcgR = hGcgR (Homo sapiens, UniProt P47871); assay: Functional cAMP activation in the presence of 0.1% casein (no HSA); format: cell-based;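 further: intracellular cAMP rise after 30 min at 37 °C, read by HTRF against a cAMP standard curve, scaled from buffer only (0%) to maximal control ligand response (100%)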
hGcgR, sequence (P47871 26-477): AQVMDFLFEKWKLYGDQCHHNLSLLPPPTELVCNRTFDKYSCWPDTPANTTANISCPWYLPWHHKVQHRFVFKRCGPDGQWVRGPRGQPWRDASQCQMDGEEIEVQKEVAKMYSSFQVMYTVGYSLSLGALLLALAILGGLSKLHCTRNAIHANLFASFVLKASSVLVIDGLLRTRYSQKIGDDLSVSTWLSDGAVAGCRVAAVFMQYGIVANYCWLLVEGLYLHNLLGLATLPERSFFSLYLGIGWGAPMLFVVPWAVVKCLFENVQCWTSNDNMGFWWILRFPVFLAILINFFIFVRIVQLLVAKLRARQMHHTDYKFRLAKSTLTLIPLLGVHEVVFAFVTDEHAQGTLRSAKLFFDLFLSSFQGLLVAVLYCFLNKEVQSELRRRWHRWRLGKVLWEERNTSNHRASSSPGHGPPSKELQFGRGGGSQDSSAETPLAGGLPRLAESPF

[1] = Body weight in diet-induced obese C57BL/6 mice; format: in vivo; details: 10 nmol/kg SC Q3D, 14 days, percent of starting weight, DIO mice, mean ± SEM n=5
How it was run: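 Daily weighing gave body weight as percent of starting value (mean±SEM, n=5) over 9-16 days of SC dosing, once daily or every 3 days, shortly before lights-off. Animals were weight-randomized male C57BL/6 DIO mice, 41-50 g, fed ad libitum on a calorie-rich diet.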

hGLP-1R [2] = biological target: T1, hGLP-1R (Homo sapiens, UniProt P43220); assay: Functional cAMP activation in the presence of 0.1% casein (no HSA); format: cell-based;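 further: intracellular cAMP rise after 30 min at 37 °C read by HTRF, normalized between buffer only (0%) and maximal control ligand (100%), four-parameter variable-slope fit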
Target sequence in this assay (P43220 24-463): as the sequence (P43220 24-463) above

hGIPR [3] = biological target: T2, hGIPR (Homo sapiens, UniProt P48546); assay: as above; format: cell-based
T2 sequence (P48546 22-466): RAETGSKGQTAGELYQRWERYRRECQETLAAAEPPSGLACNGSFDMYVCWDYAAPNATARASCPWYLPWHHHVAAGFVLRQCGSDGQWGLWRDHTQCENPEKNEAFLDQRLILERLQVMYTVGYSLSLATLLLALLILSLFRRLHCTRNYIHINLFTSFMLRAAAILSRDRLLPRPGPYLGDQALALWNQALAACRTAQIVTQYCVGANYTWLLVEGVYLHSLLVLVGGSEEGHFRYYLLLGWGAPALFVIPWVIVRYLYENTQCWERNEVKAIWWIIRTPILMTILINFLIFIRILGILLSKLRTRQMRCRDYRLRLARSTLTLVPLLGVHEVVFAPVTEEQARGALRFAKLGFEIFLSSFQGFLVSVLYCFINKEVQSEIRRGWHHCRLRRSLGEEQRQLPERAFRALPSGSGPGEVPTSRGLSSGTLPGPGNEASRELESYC

human GcgR = human GcgR (Homo sapiens, UniProt P47871); assay: Functional cAMP activity in the presence of 1% HSA; format: cell-based
human GcgR, sequence (P47871 26-477): as the sequence (P47871 26-477) above

[4] = Pharmacokinetics in male Sprague Dawley rats, single subcutaneous administration; details: rat, in vivo, sc, 10 nmol/kg
Procedure: The pharmacokinetics of the exemplary analogs are evaluated following a single subcutaneous (SC) administration of 10 nmol/kg (dissolved in 40 mM Tris pH8) or single 4 mg/kg (mixed with 250 mM sodium decanoate/C10 in 40 mM Tris pH8) intrajejunal (IJ) administration to male Sprague Dawley rats. Blood samples are collected over 96 hours following SC administration and 72 hours following IJ dosing, and resulting individual plasma concentrations are used to calculate pharmacokinetic parameters. Peptide plasma (K3 EDTA) concentrations are determined using a qualified LC/MS method that measured the intact mass of the analog. Each peptide and an analog as an internal standard are extracted from rat plasma using methanol. A High Resolution Instrument was used for LC/MS detection.

hGLP-1R [5] = biological target: T1, hGLP-1R; assay: GLP-1R CHO cell β-arrestin recruitment assay; format: cell-based; design: host or cells: CHO-K1 (PathHunter, assay-ready frozen cells);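 further: luminescence read after 90 min peptide exposure at 37 °C and a further 60 min with detection reagent at room temperature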
Target sequence in this assay (P43220 24-463): as the sequence (P43220 24-463) above
Target sequence in this assay (P32121 whole entry partner): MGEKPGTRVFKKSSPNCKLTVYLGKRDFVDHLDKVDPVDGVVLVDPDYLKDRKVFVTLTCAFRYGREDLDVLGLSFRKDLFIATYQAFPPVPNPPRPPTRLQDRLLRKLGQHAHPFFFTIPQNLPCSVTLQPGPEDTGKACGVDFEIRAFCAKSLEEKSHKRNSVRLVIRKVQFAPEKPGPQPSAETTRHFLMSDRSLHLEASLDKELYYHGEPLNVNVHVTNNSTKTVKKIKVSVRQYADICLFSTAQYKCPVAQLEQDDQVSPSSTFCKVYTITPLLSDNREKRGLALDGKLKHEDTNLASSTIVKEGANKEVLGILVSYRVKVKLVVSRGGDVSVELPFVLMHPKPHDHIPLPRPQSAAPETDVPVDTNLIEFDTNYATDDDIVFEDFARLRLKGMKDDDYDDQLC
Procedure: CHO-KI cells expressing Pro-Link-tagged Human GLP-1R and enzyme-acceptor-tagged β-arrestin-2 may be obtained from DiscoveRx and prepared as assay-ready frozen cells. Test peptides are solubilized in DMSO and serial dilutions are performed using the Echo acoustic dispenser (LabCyte). Assay media is the PathHunter Cell Assay Buffer (DiscoveRx) containing 0.1% w/v hydrolyzed Casein (Sigma). […] Plates are incubated for 90 minutes in a 37′C/5% C02 incubator and 10 μl of PathHunter detection reagent is added (DiscoveRx) and plates are incubated at room temperature for 60 minutes. Luminescence signal is measured. Peptide concentration-response curves fit to a four-parameter logistic model to calculate potency as an EC50.

hGLP-1R [6] = biological target: T1, hGLP-1R; assay: Functional cAMP activity in the presence of 1% HSA; format: cell-based
Target sequence in this assay (P43220 24-463): as the sequence (P43220 24-463) above

hGIPR [7] = biological target: T2, hGIPR; assay: Functional cAMP activity in the presence of 1% HSA; format: cell-based
[8] = In vivo ileum (distal loop) absorption assay; details: Sprague Dawley, rat, 300 μM peptide with 100 mM C10, rats
Procedure: Ileum absorption of the exemplary polypeptides in the presence of C10 in rats is evaluated using a previously reported intestinal closed loop model (Lawrence, S. A.; Blankenship, R.; Brown, […].; Ellis, B.; Thangaraju, A.; Datta-Mannan, A., Influence of FcRn binding properties on the gastrointestinal absorption and exposure profile of Fc molecules. […] Overnight fasted Sprague Dawley rats with body weights between 250-280 grams are anesthetized by inhaling isoflurane and placed on a warm surgical table maintained by circulating water at 37 °C. The surgical area is shaved, and the skin is disinfected with betadine scrub followed by 70% isopropyl alcohol. An approximately 2 cm ventral midline incision is made to expose intestine, and 10 cm of an ileum segment is tied off. The peptides are formulated with 100 mM C10 in Tris buffer (pH 8.0, 50 mM) at a final concentration of 300 μM. The formulations are administered directly into the ileum loop. […] Blood samples are collected into tubes containing […] (5%) and processed to plasma for subsequent analyses. Peptide concentrations in the plasma are determined by LC/MS.

[9] = biological target: human GLP-1 receptor (hGLP-1R) (human) (UniProt P43220); assay: cell-based or functional assay
human GLP-1 receptor (hGLP-1R) (human), sequence (P43220 24-463): as above

[10] = biological target: T3, human GIP receptor (human) (UniProt P48546); assay: cell-based or functional assay
T3 sequence (looked up): T2 sequence (P48546 22-466)

[11] = biological target: T4, human GIP receptor (hGIPR) (human) (UniProt P48546); assay: cell-based or functional assay
T4 sequence (looked up): T2 sequence (P48546 22-466)

[12] = biological target: human GLP-1R (SNAP-GLP-1R expressed in HEK293 cells) (human) (UniProt P43220); assay: cell-based or functional assay
human GLP-1R (SNAP-GLP-1R expressed in HEK293 cells) (human), sequence (P43220 24-463): as above

hGLP-1R [13] = biological target: T1, hGLP-1R; assay: cell-based or functional assay
Target sequence in this assay (P43220 24-463): as above

[14] = biological target: human glucagon receptor (human) (UniProt P47871); assay: cell-based or functional assay
human glucagon receptor (human), sequence (P47871 26-477): as the sequence (P47871 26-477) above

[15] = biological target: human glucagon receptor (hGcgR) (human) (UniProt P47871); assay: cell-based or functional assay
human glucagon receptor (hGcgR) (human), sequence (P47871 26-477): as above
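Wherever Relative cAMP EC50, hGIPR is given: intracellular cAMP rise after 30 min at 37 °C read by HTRF against a standard curve, scaled between buffer alone (0%) and top control ligand concentration (100%), four-parameter fit.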

With “Y[Aib]QGTFTSDFSK[αMeL]LDKK([AEEA-γGlu-C20 diacid])AQ[Aib]AFIEYLLAGGPSSGEPPPSGE-NH2 [Example 2]” the EC50 (human GLP1-R; HEK293 cells expressing SNAP-GLP-1R, read-out: GLP1R Internalization EC50) was 49.5 nM, the “Internalization % TOP” value (human GLP1-R) was 66.8% and the EC50 (hGcgR; in the presence of 0.1% casein (no HSA), geometric mean, read-out: Relative cAMP EC50, hGcgR) was 4.29 nM. For the same molecule, the “Body weight (%)” value [1] was 77.90 +/− 1.90**** %, the EC50 (hGLP-1R [2]; in the presence of 0.1% casein (no HSA), geometric mean, read-out: Relative cAMP EC50, hGLP-1R) was 1.65 nM and the EC50 (hGIPR [3]; in the presence of 0.1% casein (no HSA), geometric mean, read-out: Relative cAMP EC50, hGIPR) was 0.207 nM. For the same molecule, the EC50 (human GcgR; read-out: cAMP Rel EC50, hGcgR) was 1630 nM, the CL/F [4] was 0.143 mL/min/kg and the half-life [4] was 12.1 h. The EC50 (hGLP-1R [5]; CHO-K1 PathHunter, β-arrestin-2, 0.1% casein, read-out: hGLP1R β-arrestin Rel EC50) was > 10000 nM, the “% Stimulation Max” value (hGLP-1R [5]; normalized to GLP-1(7-36) as maximum control) was 12.3% and the EC50 (hGLP-1R [6]; read-out: cAMP Rel EC50, hGLP-1R) was 631 nM. For the same molecule, the EC50 (hGIPR [7]; read-out: cAMP Rel EC50, hGIPR) was 75.5 nM.

In the case of “Y[Aib]QGTFTSDFSQ[αMeL]LDKK([AEEA-γGlu-C18 diacid])AQ[αMe4Pal]AFIEYLIE[Aib]GESSGAPPPSGS-NH2 [Example 232]”, the EC50 (human GLP1-R) is reported as 44.7 nM, the “Internalization % TOP” value (human GLP1-R) is reported as 45.5% and the EC50 (hGcgR) is reported as 2.42 nM. For the same molecule, the AUC [8] was 0.202 µM·h, the level at time molar at 10 min ([8]; 10 min, read-out: 10 min IL plasma concentration) was 186 nM and the level at time molar at 20 min ([8]; 20 min, read-out: 20 min IL plasma concentration) was 235 nM. It also gave a level at time molar at 40 min ([8]; 40 min, read-out: 40 min IL plasma concentration) of 255 nM, a level at time molar at 1 h ([8]; 60 min, read-out: 60 min IL plasma concentration) of 256 nM and an EC50 (hGLP-1R [2]) of 0.819 nM. It also gave an EC50 (hGIPR [3]) of 0.102 nM, an EC50 (human GcgR) of 482 nM and an EC50 (hGLP-1R [6]) of 226 nM. The EC50 (hGIPR [7]) was 24.6 nM.

B1: Example 548 (peptide)
chain: YXQGTXTSDXXILLDXKAQXXFIEYLIEGGPSSGEPPPSGTGE
modifications: synthetic construct; SITE 2: note = 2-Aminoisobutyric Acid; SITE 6: note = alpha-methyl-2-fluoro-L-phenylalanine; SITE 10: note = 3-(4-Pyridyl)-L-alanine; SITE 11: note = alpha-methyl-L-serine; SITE 16: note = L-ornithine; SITE 17: note = Lysine is chemically modified through conjugation of the epsi
B1 showed a Relative cAMP EC50 [9] of 0.478 nM, a cAMP Rel EC50, nM (presence of 1% HSA) [10] of 3.48 nM and a Relative cAMP EC50 [11] of 0.0547 nM. The GLP1R Internalization EC50 [12] was 17.8 nM, the Internalization % TOP [12] was 109% and the cAMP Rel EC50, nM (presence of 1% HSA) (hGLP-1R [13]) was 38 nM. The cAMP Rel EC50, nM (presence of 1% HSA) [14] was 295 nM and the Relative cAMP EC50 [15] was 3.94 nM.

B2: Example 579 (peptide)
chain: YXQGTXTSDXSILLDKKAQXAFIEWLQEGGPSSGEPPPSGTEE
modifications: non-natural residues; lysine acylated with C18 diacid; C-terminal amide; synthetic construct; SITE 2: note = 2-Aminoisobutyric Acid; SITE 6: note = alpha-methyl-2-fluoro-L-phenylalanine; SITE 10: note = 3-(4-Pyridyl)-L-alanine; SITE 17: note = Lysine is chemically modified through conjugation of the epsilon-amino group of the Lysine side chain with (gamma-Glu)2-CO-(CH2)1
Molecule B2 has a Relative cAMP EC50 [9] of 0.252 nM, a cAMP Rel EC50, nM (presence of 1% HSA) [10] of 3.79 nM and a Relative cAMP EC50 [11] of 0.0171 nM. It also gave a cAMP Rel EC50, nM (presence of 1% HSA) (hGLP-1R [13]) of 67.3 nM, a cAMP Rel EC50, nM (presence of 1% HSA) [14] of 679 nM and a Relative cAMP EC50 [15] of 2.36 nM.

B3: Example 583 (peptide)
chain: B2 chain with K16X, W25Y
modifications: acylated lysine (γ-Glu)2 C18 diacid; non-natural residues; C-terminal amide; synthetic construct; SITE 2: note = 2-Aminoisobutyric Acid; SITE 6: note = alpha-methyl-2-fluoro-L-phenylalanine; SITE 10: note = 3-(4-Pyridyl)-L-alanine; SITE 16: note = L-ornithine; SITE 17: note = Lysine is chemically modified through conjugation of the epsilon-amino group of the Lysine side chai
In the case of B3, the Relative cAMP EC50 [9] is reported as 0.542 nM, the cAMP Rel EC50, nM (presence of 1% HSA) [10] is reported as 12.3 nM and the Relative cAMP EC50 [11] is reported as 0.0692 nM. The cAMP Rel EC50, nM (presence of 1% HSA) (hGLP-1R [13]) was 71 nM, the cAMP Rel EC50, nM (presence of 1% HSA) [14] was 1250 nM and the Relative cAMP EC50 [15] was 6.32 nM.
